Measured values reported in patent publication US10729738B2, “Hindered disulfide drug conjugates” (priority 2015, dated 2020).
Where a SMILES comes first, the peptide text is derived from it. [ ]: non-standard residue; d: D form. The star is where a group is joined. X14 = CC(C)(COC(=O)*)SSc1nc2cc([N+](=O)[O-])ccc2[nH]1; Dolaproine = CO[C@@H]([C@@H]1CCCN1)[C@@H](C)C(=O)O; X22 = CC(C)(COC(=O)*)SSc1nc2cccc(C(=O)O)c2[nH]1; Dil = CC[C@H](C)[C@H](NC)[C@@H](CC(=O)O)OC; X16 = CN(C)C(=O)c1cnccc1SSC(C)(C)COC(=O)*; X4 = CC(C)(COC(=O)*)SSc1nc2ncnc(N)c2[nH]1; X10 = CC(C)(COC(=O)*)SSc1nc2ncncc2[nH]1; X12 = Cn1c(C(=O)O)cnc1SSC(C)(C)COC(=O)*; X13 = CC(C)(COC(=O)*)SSc1nc2cnccc2[nH]1; X17 = Cn1c(SSC(C)(C)COC(=O)*)nc2ccccc21; X19 = Cn1cc(C(=O)O)nc1SSC(C)(C)COC(=O)*; X5 = CC(C)(COC(=O)*)SSc1nc2ncccc2[nH]1; X7 = CC(C)(COC(=O)*)SSc1nc2ccccc2[nH]1; X8 = CC(C)(COC(=O)*)SSc1nc2nccnc2[nH]1; X2 = C[C@@H](N*)[C@@H](O)c1ccccc1; X21 = CC(C)(COC(=O)*)SSc1ncc[nH]1; X9 = CC(C)(COC(=O)*)SSc1nnn[nH]1; X1 = Cn1nnnc1SSC(C)(C)COC(=O)*; NMeV = CN[C@H](C(=O)O)C(C)C

Tests used:
[1] = target: human serum albumin Cys-34 (Homo sapiens, UniProt P02768); assay: Conjugation of activated disulfide-MMAE molecules to human serum albumin (Conjugate Ratio, LC/MS); details: disulfide MMAE compound at 10 molar equivalents relative to HSA, 75 mM Tris pH 8.5, ~16 hours at room temperature
Procedure: In a first evaluation, MMAE was conjugated to human serum albumin (HSA). […] This Cys residue is blocked as a mixed disulfide with Cys or glutathione, preventing complete conjugation of other molecules to this residue. […] Conjugate reactions were analyzed by LC/MS. The extent of the expected MMAE-HSA conjugate formed during the reaction is represented by the “Conjugate Ratio”, measured by dividing the abundance of the MS peak for the MMAE-HSA conjugate by the sum total abundance of all peaks observed. The ideal value for the Conjugate Ratio is 1.0. The results are reported in table 31 below wherein the wavy line for the leaving group represents the point of attachment to the disulfide bond, and “HSA CR” refers to human serum albumin conjugate ratio.

[2] = target: T1, penetratin (AntP) peptide (Drosophila melanogaster, UniProt P02833); assay: Conjugation of activated disulfide-MMAE molecules to penetratin (AntP) peptide (% Product); details: peptide 25 uM, disulfide MMAE 5 equivalents, 75 mM Tris pH 8.5 and 10% DMF, ~16 hours at room temperature, UV peak area
T1 construct: C-terminal amide (CONH2); made in house; host or cells: chemical synthesis (Fmoc solid-phase peptide synthesis)
Procedure: In a second evaluation, MMAE was conjugated to penetratin (AntP) peptide. The AntP peptide, with sequence H2N-[…]-CONH2 (SEQ ID NO:1) bearing a free Cys thiol at the C-terminus, was synthesized via standard Fmoc solid-phase peptide synthesis methods. This peptide was conjugated at a concentration of 25 uM to disulfide MMAE molecules with varying leaving groups (5 equivalents) in a buffered solution composed of 75 mM Tris, pH 8.5 and 10% DMF for ˜16 hours at room temperature. Extent of the reaction was measured by dividing the integrated area for the UV peak of the MMAE-AntP conjugate by the sum of all peaks (“% Product”). The ideal value for % Product is 100%. The results are reported in table 31 below wherein the wavy line for the leaving group represent the point of attachment to the disulfide bond, and “AntP % P” refers to penetratin (AntP) peptide % product.

[3] = In vitro disulfide cleavage and immolation by incubation with cysteine or glutathione (LC/MS); assay type: physicochemical; details: for Percentage of all products: pH 7.0, 37° C.
Procedure: In a first phase of the experiment, disulfide cleavage and immolation by incubation with cysteine and glutathione—with the thiol concentrations mimic those in plasma and cancer cells—was investigated using unconjugated small molecule model systems with para-nitro-pyridyl disulfide-containing linker drug analogs 1, 2 and 11 below. In particular, cleavage and immolation was evaluated in vitro by incubation at […] with cysteine ([…] or 200 μM) or glutathione (GSH, 4 mM) in 100 mM Tris buffer pH 7.0 containing 5% methanol at 37° C. Aliquots were taken at specified time points and the samples were analyzed by LC/MS on Sciex TripleTOF 5600 on a Hypersil Gold C18 column (100×2.1, […], Thermo Scientific). The column was eluted by a gradient of buffer A (0.1% formic acid in 10 mM ammonium acetate) to buffer B (0.1% formic acid in 10 mM ammonium acetate in 90% acetonitrile), 5% B 0-0.5 min, 5-25% B 0.5-8 min, 25-75% B 8-13 min, and 75-95% B 13-13.5 min, 95% B 13.5-14.5 min, 95-5% B 14.5-15 min at 0.4 mL/min. Under these conditions, para-nitropyridyl thiol was eluted at 5.3 min. All products (compounds 1, 2, 11, 3a, 3b, 4a, 4b, 12a, 12 b, 6, 7, 13 and 8) were separated and characterized by LC/MS/MS in a positive ESI ion mode. All analytes had the protonated molecular MH^+ as the major species with little source fragmentation. Full scan accurate mass peak areas were used to estimate relative abundance of each component and the disappearance of 1, 2, and 11 estimated relative full scan peak areas was consistent with that estimated based on the relative abundance compared to time 0 by MS or UV. The results are reported in Table 15 below and the analytical results are presented in Table 16 below where “Cmpd” refers to compound, “RT” refers to retention time in minutes, and “Calc. Mass” refers to calculated mass. The relative abundance of disulfide cleavage and immolation products over time were evaluated and are disclosed in FIGS. 12A to 12C, 13A to 13C, 14A to 14C and 15A to 15C where the products were monitored by LC/MS from incubations of linker drugs 1, 2, and 11 at pH 7.0 and 37° C. in the presence of: 0.2 mM cysteine (FIGS. 12A, 12B and 12C); 0.03 mM cysteine (FIGS. 13A, 13B and 13C); 4 mM glutathione (FIGS. 14A, 14B and 14C); and 0.03 mM glutathione (FIGS. 15A, 15B and 15C). In FIGS. 12A to 12C, 13A to 13C, 14A to 14C and 15A to 15C, compound reference numbers 1, 2, 3a, 3b, 4a, 4b, 6, 7, 8, 11, 12a, 12b and 13 correspond to the structures below.

human serum albumin Cys-34, sequence (P02768 25-609): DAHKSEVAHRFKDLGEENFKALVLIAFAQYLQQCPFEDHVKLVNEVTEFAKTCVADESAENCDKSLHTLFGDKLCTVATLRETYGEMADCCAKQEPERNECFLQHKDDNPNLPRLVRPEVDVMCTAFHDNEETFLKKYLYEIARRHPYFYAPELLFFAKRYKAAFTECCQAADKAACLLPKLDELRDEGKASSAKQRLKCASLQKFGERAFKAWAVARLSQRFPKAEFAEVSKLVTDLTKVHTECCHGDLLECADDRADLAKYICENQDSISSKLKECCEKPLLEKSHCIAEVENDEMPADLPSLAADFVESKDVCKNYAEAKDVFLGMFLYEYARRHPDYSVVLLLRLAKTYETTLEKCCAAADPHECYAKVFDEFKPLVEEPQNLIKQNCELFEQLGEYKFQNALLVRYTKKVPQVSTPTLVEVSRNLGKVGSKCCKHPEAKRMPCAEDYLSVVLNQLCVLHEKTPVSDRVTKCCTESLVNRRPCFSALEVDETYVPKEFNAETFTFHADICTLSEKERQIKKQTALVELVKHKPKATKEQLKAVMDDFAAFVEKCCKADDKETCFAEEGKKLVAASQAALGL

Compound | HAS CR (HSA Conjugation Ratio) [1] | AntP % P (penetratin (AntP) peptide % product) [2] [%] | further results
CC[C@H](C)[C@@H]([C@@H](CC(=O)N1CCC[C@H]1[C@H](OC)[C@@H](C)C(=O)N[C@H](C)[C@@H](O)c1ccccc1)OC)N(C)C(=O)[C@@H](NC(=O)[C@H](C(C)C)N(C)C(=O)OCC(C)(C)SSc1nnn[nH]1)C(C)C (X9-[NMeV]V[Dil][Dolaproine]-X2) | 0.09 | 1.9 | –
CC[C@H](C)[C@@H]([C@@H](CC(=O)N1CCC[C@H]1[C@H](OC)[C@@H](C)C(=O)N[C@H](C)[C@@H](O)c1ccccc1)OC)N(C)C(=O)[C@@H](NC(=O)[C@H](C(C)C)N(C)C(=O)OCC(C)(C)SSc1nc2cc([N+](=O)[O-])ccc2[nH]1)C(C)C (X14-[NMeV]V[Dil][Dolaproine]-X2) | 0.69 | 26 | –
CC[C@H](C)[C@@H]([C@@H](CC(=O)N1CCC[C@H]1[C@H](OC)[C@@H](C)C(=O)N[C@H](C)[C@@H](O)c1ccccc1)OC)N(C)C(=O)[C@@H](NC(=O)[C@H](C(C)C)N(C)C(=O)OCC(C)(C)SSc1nnnn1C)C(C)C (X1-[NMeV]V[Dil][Dolaproine]-X2) | 0.86 | 32 | –
CC[C@H](C)[C@@H]([C@@H](CC(=O)N1CCC[C@H]1[C@H](OC)[C@@H](C)C(=O)N[C@H](C)[C@@H](O)c1ccccc1)OC)N(C)C(=O)[C@@H](NC(=O)[C@H](C(C)C)N(C)C(=O)OCC(C)(C)SSc1ncc(C(=O)O)n1C)C(C)C (X12-[NMeV]V[Dil][Dolaproine]-X2) | 0.55 | 4 | –
CC[C@H](C)[C@@H]([C@@H](CC(=O)N1CCC[C@H]1[C@H](OC)[C@@H](C)C(=O)N[C@H](C)[C@@H](O)c1ccccc1)OC)N(C)C(=O)[C@@H](NC(=O)[C@H](C(C)C)N(C)C(=O)OCC(C)(C)SSc1nc2cccc(C(=O)O)c2[nH]1)C(C)C (X22-[NMeV]V[Dil][Dolaproine]-X2) | 0.34 | 25 | –
CC[C@H](C)[C@@H]([C@@H](CC(=O)N1CCC[C@H]1[C@H](OC)[C@@H](C)C(=O)N[C@H](C)[C@@H](O)c1ccccc1)OC)N(C)C(=O)[C@@H](NC(=O)[C@H](C(C)C)N(C)C(=O)OCC(C)(C)SSc1nc2nccnc2[nH]1)C(C)C (X8-[NMeV]V[Dil][Dolaproine]-X2) | 0.63 | 36 | –
CC[C@H](C)[C@@H]([C@@H](CC(=O)N1CCC[C@H]1[C@H](OC)[C@@H](C)C(=O)N[C@H](C)[C@@H](O)c1ccccc1)OC)N(C)C(=O)[C@@H](NC(=O)[C@H](C(C)C)N(C)C(=O)OCC(C)(C)SSc1nc2ncncc2[nH]1)C(C)C (X10-[NMeV]V[Dil][Dolaproine]-X2) | 0.6 | 34 | –
CC[C@H](C)[C@@H]([C@@H](CC(=O)N1CCC[C@H]1[C@H](OC)[C@@H](C)C(=O)N[C@H](C)[C@@H](O)c1ccccc1)OC)N(C)C(=O)[C@@H](NC(=O)[C@H](C(C)C)N(C)C(=O)OCC(C)(C)SSc1nc2ncccc2[nH]1)C(C)C (X5-[NMeV]V[Dil][Dolaproine]-X2) | 0.84 | 12 | –
CC[C@H](C)[C@@H]([C@@H](CC(=O)N1CCC[C@H]1[C@H](OC)[C@@H](C)C(=O)N[C@H](C)[C@@H](O)c1ccccc1)OC)N(C)C(=O)[C@@H](NC(=O)[C@H](C(C)C)N(C)C(=O)OCC(C)(C)SSc1ccncc1C(=O)N(C)C)C(C)C (X16-[NMeV]V[Dil][Dolaproine]-X2) | 0.22 | 51 | –
CC[C@H](C)[C@@H]([C@@H](CC(=O)N1CCC[C@H]1[C@H](OC)[C@@H](C)C(=O)N[C@H](C)[C@@H](O)c1ccccc1)OC)N(C)C(=O)[C@@H](NC(=O)[C@H](C(C)C)N(C)C(=O)OCC(C)(C)SSc1nc2cnccc2[nH]1)C(C)C (X13-[NMeV]V[Dil][Dolaproine]-X2) | 0.86 | 26 | –
CC[C@H](C)[C@@H]([C@@H](CC(=O)N1CCC[C@H]1[C@H](OC)[C@@H](C)C(=O)N[C@H](C)[C@@H](O)c1ccccc1)OC)N(C)C(=O)[C@@H](NC(=O)[C@H](C(C)C)N(C)C(=O)OCC(C)(C)SSc1nc2ccccc2n1C)C(C)C (X17-[NMeV]V[Dil][Dolaproine]-X2) | 0.87 | 7.5 | –
CC[C@H](C)[C@@H]([C@@H](CC(=O)N1CCC[C@H]1[C@H](OC)[C@@H](C)C(=O)N[C@H](C)[C@@H](O)c1ccccc1)OC)N(C)C(=O)[C@@H](NC(=O)[C@H](C(C)C)N(C)C(=O)OCC(C)(C)SSc1nc(C(=O)O)cn1C)C(C)C (X19-[NMeV]V[Dil][Dolaproine]-X2) | 0.38 | 4.9 | –
CC[C@H](C)[C@@H]([C@@H](CC(=O)N1CCC[C@H]1[C@H](OC)[C@@H](C)C(=O)N[C@H](C)[C@@H](O)c1ccccc1)OC)N(C)C(=O)[C@@H](NC(=O)[C@H](C(C)C)N(C)C(=O)OCC(C)(C)SSc1nc2ccccc2[nH]1)C(C)C (X7-[NMeV]V[Dil][Dolaproine]-X2) | 0.52 | 18 | –
CC[C@H](C)[C@@H]([C@@H](CC(=O)N1CCC[C@H]1[C@H](OC)[C@@H](C)C(=O)N[C@H](C)[C@@H](O)c1ccccc1)OC)N(C)C(=O)[C@@H](NC(=O)[C@H](C(C)C)N(C)C(=O)OCC(C)(C)SSc1ncc[nH]1)C(C)C (X21-[NMeV]V[Dil][Dolaproine]-X2) | 0.99 | 1.7 | –
CC[C@H](C)[C@@H]([C@@H](CC(=O)N1CCC[C@H]1[C@H](OC)[C@@H](C)C(=O)N[C@H](C)[C@@H](O)c1ccccc1)OC)N(C)C(=O)[C@@H](NC(=O)[C@H](C(C)C)N(C)C(=O)OCC(C)(C)SSc1nc2ncnc(N)c2[nH]1)C(C)C (X4-[NMeV]V[Dil][Dolaproine]-X2) | 0.23 | 21 | –
C=C1CC2C=Nc3cc(OCCCCCOc4cc5c(cc4OC)C(=O)N4CC(=C)CC4C(O)N5C(=O)OCC(C)S)c(OC)cc3C(=O)N2C1 (stereo not shown) [Compound 6] | – | – | Percentage of all products ([3]; 30 μM cysteine, 1 h): 2.5%; Percentage of all products ([3]; 30 μM cysteine, 4 h): 1.7%; Percentage of all products ([3]; 30 μM cysteine, 24 h): 0.5%; Percentage of all products ([3]; 200 μM cysteine, 1 h): 7.8%; Percentage of all products ([3]; 200 μM cysteine, 4 h): 2.8%; Percentage of all products ([3]; 200 μM cysteine, 24 h): 0.1%; Percentage of all products ([3]; 4 mM GSH, 1 h): 2.6%; Percentage of all products ([3]; 4 mM GSH, 4 h): 0%; Percentage of all products ([3]; 4 mM GSH, 24 h): 0%; Immolation of thiol intermediate ([3]; incubation with cysteine or glutathione): immolated quickly
